{
  "source": "patent US20260078133",
  "details": "ester bond, 18-membered ring, DCM",
  "note": "Where two headings read alike, the source gives them in different places.",
  "data": [
    {"molecule": "CCn1c(-c2cc(N3CCN(C(=O)OCc4ccccc4)CC3)cnc2[C@H](C)OC)c2c3cc(ccc31)N1CCO[C@@H](C[C@H](NC(=O)OC(C)(C)C)C(=O)N3N[C@H](C(=O)OCC(C)(C)C2)C2CC3C2)C1", "values": [
      {"measurement": "ring closure, isolated yield", "setting": "from CCn1c(-c2cc(N3CCN(C(=O)OCc4ccccc4)CC3)cnc2[C@H](C)OC)c(CC(C)(C)CO)c2cc(N3CCO[C@@H](C[C@H](NC(=O)OC(C)(C)C)C(=O)N4N[C@H](C(=O)O)C5CC4C5)C3)ccc21, PyBOP/DMAP, 9.8 mM, 35.0 °C, 0.5 h", "value": 16, "unit": "%"}
    ]},
    {"molecule": "C=C[C@@H]1CCN2N[C@@H]1C(=O)OCC(C)(C)Cc1c(-c3cc(N4CCN(C(=O)OCc5ccccc5)CC4)cnc3[C@H](C)OC)n(CC)c3ccc(cc13)-c1csc(n1)C[C@H](NC(=O)OC(C)(C)C)C2=O", "values": [
      {"measurement": "ring closure, isolated yield", "setting": "from C=C[C@@H]1CCN(C(=O)[C@H](Cc2nc(-c3ccc4c(c3)c(CC(C)(C)CO)c(-c3cc(N5CCN(C(=O)OCc6ccccc6)CC5)cnc3[C@H](C)OC)n4CC)cs2)NC(=O)OC(C)(C)C)N[C@@H]1C(=O)O, EDCI/HOBT/DIEA, 10.0 mM, 16.0 h", "value": 36.7, "unit": "%"}
    ]},
    {"molecule": "CCn1c(-c2cc(N3CCN(C)CC3)cnc2[C@H](C)OC)c2c3cc(ccc31)-c1csc(n1)C[C@H](NC(=O)OC(C)(C)C)C(=O)N(C)NCC(=O)OCC(C)(C)C2", "values": [
      {"measurement": "ring closure, isolated yield", "setting": "from CCn1c(-c2cc(N3CCN(C)CC3)cnc2[C@H](C)OC)c(CC(C)(C)CO)c2cc(-c3csc(C[C@H](NC(=O)OC(C)(C)C)C(=O)N(C)NCC(=O)O)n3)ccc21, PyBOP/DMAP, 0.8 mM, 0.0 °C, 1.0 h", "value": 42, "unit": "%"}
    ]},
    {"molecule": "CCn1c(-c2cccnc2[C@H](C)OC)c2c3cc(ccc31)N1CCO[C@@H](C[C@H](NC(=O)OC(C)(C)C)C(=O)N3N[C@H](C(=O)OCC(C)(C)C2)C2CC3C2)C1", "values": [
      {"measurement": "ring closure, isolated yield", "setting": "from CCn1c(-c2cccnc2[C@H](C)OC)c(CC(C)(C)CO)c2cc(N3CCO[C@@H](C[C@H](NC(=O)OC(C)(C)C)C(=O)N4N[C@H](C(=O)O)C5CC4C5)C3)ccc21, PyBOP/DMAP, 2.6 mM, 16.0 h", "value": 96.2, "unit": "%"}
    ]},
    {"molecule": "tert-butyl ((1^2S,12S)-2^1-ethyl-2^2-(2-((S)-1-methoxyethyl)pyridin-3-yl)-4,4,10-trimethyl-7,11-dioxo-2^1H-6-oxa-9,10-diaza-1(4,2)-morpholina-2(5,3)-indolacyclotridecaphane-12-yl)carbamate", "values": [
      {"measurement": "ring closure, isolated yield", "setting": "EDCI/HOBT/DIEA, 6.5 mM", "value": 44, "unit": "%"}
    ]},
    {"molecule": "benzyl-4-(5-((64S,4S)-4-((tert-butoxycarbonyl) amino)-11-ethyl-10,10-dimethyl-5,7-dioxo-11H-8-oxa-62,63-diaza-1 (5,3)-indola-6(2,4)-bicyclo[3.1.1]heptana-2(1,3)-benzenacycloundecaphane-12-yl)-6-((S)-1-methoxyethyl)pyridin-3-yl)piperazine-1-carboxylate", "values": [
      {"measurement": "ring closure, isolated yield", "setting": "EDCI/HOBT/DIEA, 6.0 mM", "value": 27, "unit": "%"}
    ]},
    {"molecule": "CCn1c(-c2cc(N3CCN(C)CC3)cnc2[C@H](C)OC)c2c3cc(ccc31)-c1csc(n1)C[C@H](NC(=O)OC(C)(C)C)C(=O)N1N[C@H](C(=O)OCC(C)(C)C2)C2CC1C2", "values": [
      {"measurement": "ring closure, isolated yield", "setting": "from CCn1c(-c2cc(N3CCN(C)CC3)cnc2[C@H](C)OC)c(CC(C)(C)CO)c2cc(-c3csc(C[C@H](NC(=O)OC(C)(C)C)C(=O)N4N[C@H](C(=O)O)C5CC4C5)n3)ccc21, PyBOP/DMAP, 5.7 mM, 5.0 h", "value": 48.8, "unit": "%"}
    ]},
    {"molecule": "CCn1c(-c2cc(N3CCN(C(=O)OCc4ccccc4)CC3)cnc2[C@H](C)OC)c2c3cc(ccc31)-c1csc(n1)C[C@H](NC(=O)OC(C)(C)C)C(=O)N(C)NCC(=O)OCC(C)(C)C2", "values": [
      {"measurement": "ring closure, isolated yield", "setting": "from CCn1c(-c2cc(N3CCN(C(=O)OCc4ccccc4)CC3)cnc2[C@H](C)OC)c(CC(C)(C)CO)c2cc(-c3csc(C[C@H](NC(=O)OC(C)(C)C)C(=O)N(C)NCC(=O)O)n3)ccc21, EDCI/HOBT/DIEA, 4.3 mM, 16.0 h", "value": 38.2, "unit": "%"}
    ]},
    {"molecule": "CCn1c(-c2cc(N3CCN(C4CC4)CC3)cnc2[C@H](C)OC)c2c3cc(ccc31)-c1csc(n1)C[C@H](NC(=O)OC(C)(C)C)C(=O)N(C)NCC(=O)OCC(C)(C)C2", "values": [
      {"measurement": "ring closure, isolated yield", "setting": "from CCn1c(-c2cc(N3CCN(C4CC4)CC3)cnc2[C@H](C)OC)c(CC(C)(C)CO)c2cc(-c3csc(C[C@H](NC(=O)OC(C)(C)C)C(=O)N(C)NCC(=O)O)n3)ccc21, PyBOP/DMAP, 5.9 mM, 0.0 °C, 1.0 h", "value": 27, "unit": "%"}
    ]},
    {"molecule": "CCn1c(-c2cc(N3CCN(C4CC4)CC3)cnc2[C@H](C)OC)c2c3cc(ccc31)-c1nnc(o1)C[C@H](NC(=O)OCc1ccccc1)C(=O)N1N[C@H](C(=O)OCC(C)(C)C2)C2CC1C2", "values": [
      {"measurement": "ring closure, isolated yield", "setting": "from CCn1c(-c2cc(N3CCN(C4CC4)CC3)cnc2[C@H](C)OC)c(CC(C)(C)CO)c2cc(-c3nnc(C[C@H](NC(=O)OCc4ccccc4)C(=O)N4N[C@H](C(=O)O)C5CC4C5)o3)ccc21, PyBOP/DMAP, 6.6 mM, 16.0 h, 2 steps", "value": 29, "unit": "%"}
    ]},
    {"molecule": "CCn1c(-c2cc(N3CCN(C(=O)OCc4ccccc4)CC3)cnc2[C@H](C)OC)c2c3cc(ccc31)-c1csc(n1)C[C@H](NC(=O)OC(C)(C)C)C(=O)N1N[C@@H](C(=O)OCC(C)(C)C2)C2CC1C2", "values": [
      {"measurement": "ring closure, isolated yield", "setting": "from CCn1c(-c2cc(N3CCN(C(=O)OCc4ccccc4)CC3)cnc2[C@H](C)OC)c(CC(C)(C)CO)c2cc(-c3csc(C[C@H](NC(=O)OC(C)(C)C)C(=O)N4N[C@@H](C(=O)O)C5CC4C5)n3)ccc21, EDCI/HOBT/DIEA, 5.2 mM, 35.0 °C, 16.0 h", "value": 49, "unit": "%"}
    ]}
  ]
}
